From publication PMC11672637, “7-O-Carboxylic Acid-Substituted 3-O-Alkyl Difluoroquercetin; An Aztreonam-Potentiating Agent Against Carbapenemase-Producing Pseudomonas aeruginosa Through Simultaneous Inhibition of Metallo-β-Lactamase and Efflux Pump” (Antibiotics, 2024)
Like-named read-outs stand apart in the source and are kept apart here.

Tests used:
[1] = tested on: human red blood cells; assay: Hemolytic activity assay; format: cell-based; conditions: human RBCs; 4–128 mg/L tested
Protocol: Washed human red blood cells (hRBCs, Innovative Research, Novi, MI, USA) were diluted 1:100 in HEPES-NaOH buffered saline (HBS) [150 mM NaCl/5 mM HEPES-NaOH (pH 7.4)]. Samples (100 μL) were taken from the serially diluted (4 to 128 mg/L) compound 5 and mixed with 250 μL of hRBCs in 1.5 mL microcentrifuge tube. After incubation at 37 °C for 30 min, the tubes were centrifuged at 3000 rpm for 5 min. The supernatant (50 μL), thus obtained, was transferred to transparent, flat-bottom 96-well plates and absorption was measured at 405 nm (Cytation 5 imaging multimode reader, BioTek Instruments, Inc., Winooski, VT, USA). In some cases, 1% TritonX-100 or HBS buffer was used instead of the compound 5 as positive and negative controls, respectively. The percentage of hemolysis was calculated as follows: % Hemolysis = (ODtest − ODHBS)/[…] × 100%.

[2] = tested on: HEK293 cells; assay: Cytotoxicity assay (WST-1); format: cell-based, human; conditions: 24 h, 0.5–128 mg/L tested
Protocol: The HEK293 cells were cultured in Dulbecco’s modified Eagle medium (DMEM) supplemented with 10% fetal bovine serum (FBS) and 1% penicillin-streptomycin solution at 37 °C with 5% CO2. The cells seeded into 96-well plates at 1.5 × 10^4 cells/well were incubated for 24 h. The compound 5 was added to the wells at concentrations ranging from 0.5 to 128 mg/L and incubated for 24 h. Then, for WST-1 assay, EZ-cytox solution (10 μL, DoGenBio, Seoul, Republic of Korea) was added to the wells and incubated for 1 h, and the absorbance was measured at 450 nm (Cytation 5 imaging multimode reader, BioTek Instruments, Inc., Winooski, VT, USA).

[3] = In vivo pharmacokinetic study; parameters: species or system Sprague–Dawley (SD) rats; conditions: rat; for Vd: iv, 5 mg/kg; for MRT last: read-out: MRT0–last; for MRT inf: read-out: MRT0–∞
Protocol: After administration of compound 5 (5 mg/kg intravenously and 10 mg/kg orally) to specific pathogen-free (SPF) male Sprague–Dawley (SD) rats (Medicilon Colony: 999M-017), samples of serum were taken at eight different time points (0.083, 0.25, 0.5, 1, 2, 4, 8, and 24 h). Analysis of the samples were performed by liquid chromatography with tandem mass spectrometry (LC-MS/MS). A standard set of parameters were calculated using non-compartmental analysis modules in FDA certified pharmacokinetic program Phoenix WinNonlin 7.0 (Pharsight, Mountain View, CA, USA).

[4] = tested on: efflux pump activity in P. aeruginosa (PA-017, blaNDM); assay: EtBr accumulation, inhibition of efflux pump activity; format: cell-based; conditions: EtBr fluorescence compared with positive control CCCP
Protocol: The NDM-producing P. aeruginosa clinical isolate (PA-017, blaNDM) (5 mL, LB medium) was grown to reach the mid-log phase. After centrifugation at 3500 rpm for 15 min, the bacterial pellet was washed twice with PBS and resuspended to OD600 = 0.3 in PBS. To each well of a flat-bottomed black 96-well plate, 182 µL of the bacterial suspension, 4 µL of glucose [final concentration = 0.4% (w/v)], 4 µL of the synthesized compounds or positive control CCCP, and 10 µL of EtBr (final concentration = 1 µg/mL) were added. The plate was incubated at 37 °C, and fluorescence emission from EtBr (λex 480 nm/λem 630 nm) was recorded every 2 min (for 60 min) using a Cytation 5 imaging multi-mode reader (BioTek Instruments, Inc., Winooski, VT, USA).

[5] = biological target: T1, VIM-2 (Escherichia coli, UniProt Q5U7L7); assay: β-lactamase inhibition assay (nitrocefin); format: biochemical; conditions: nitrocefin substrate; read-out: BLi, IC50 VIM-2
T1 construct: VIM-2 (residues 27–266); made in house; host or cells: Escherichia coli
Protocol: (§1) Recombinant AmpC, OXA-48 (residues 23–265) and VIM-2 (residues 27–266) were prepared from Escherichia coli based on previously established protocols. KPC-2 and NDM-1 are commercially available from LifeSpan Biosciences, Inc., Seattle, WA, USA (LS-G26598) and RayBiotech, Inc., Peachtree Corners, GA, USA (230-00554), respectively. For β-lactamase inhibition assay, in a 96-well plate, 70–0.1 μM (in PBS) of the synthesized compounds (1~14) (100 μL) were mixed with diluted β-lactamase stock (2% DMSO in 200 μL). In a separate 96-well plate, a substrate of AmpC, KPC-2, OXA-48, and VIM-2 (nitrocefin) and NDM-1 (imipenem) were added into each well (final concentrations of 70 μM for nitrocefin and 100 μM for imipenem). After incubation at 37 °C for 20 min, the mixture of the synthesized compounds (1~14) and β-lactamase in one plate was added to the substrate in the other plate. Enzymatic hydrolysis of the substrate was then monitored by a Cytation 5 imaging multimode reader (BioTek Instruments Inc., Winooski, VT, USA) at 486 nm and 300 nm for nitrocefin and imipenem, respectively, for 15 min. The rates of hydrolysis in the presence of the inhibitors were determined when the reaction rate plateaued. Comparison of the enzymatic hydrolysis rates in the presence and the absence of inhibitors (100%) provided the percentage of enzyme inhibition at each concentration of the synthesized compounds. The IC50 values were obtained after non-linear regression (sigmoidal dose-responses) by GraphPad Prism 5 (GraphPad Software, Boston, MA, USA).

[6] = biological target: T2, OXA-48 (Klebsiella pneumoniae, UniProt Q6XEC0); assay: β-lactamase inhibition assay (nitrocefin); format: biochemical; conditions: nitrocefin substrate; read-out: BLi, IC50 OXA-48
T2 construct: OXA-48 (residues 23–265); made in house; host or cells: Escherichia coli
T2 sequence (Q6XEC0 23-265 limits assumed): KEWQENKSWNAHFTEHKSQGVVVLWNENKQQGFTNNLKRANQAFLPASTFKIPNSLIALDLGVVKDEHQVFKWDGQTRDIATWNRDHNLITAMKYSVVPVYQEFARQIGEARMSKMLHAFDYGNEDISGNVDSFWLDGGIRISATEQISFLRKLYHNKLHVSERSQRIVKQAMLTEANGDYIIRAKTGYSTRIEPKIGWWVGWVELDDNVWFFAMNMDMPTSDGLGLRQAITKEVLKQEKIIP
Protocol: as §1

[7] = biological target: AmpC; assay: β-lactamase inhibition assay (nitrocefin); format: biochemical; conditions: nitrocefin substrate; read-out: BLi, IC50 AmpC
Protocol: as §1

[8] = biological target: T3, KPC-2 (Klebsiella pneumoniae, UniProt Q9F663); assay: β-lactamase inhibition assay (nitrocefin); format: biochemical; conditions: nitrocefin substrate; read-out: BLi, IC50 KPC-2
T3 construct: purchased LifeSpan Biosciences, Inc. LS-G26598
T3 sequence (Q9F663 25-293, looked up, species assumed): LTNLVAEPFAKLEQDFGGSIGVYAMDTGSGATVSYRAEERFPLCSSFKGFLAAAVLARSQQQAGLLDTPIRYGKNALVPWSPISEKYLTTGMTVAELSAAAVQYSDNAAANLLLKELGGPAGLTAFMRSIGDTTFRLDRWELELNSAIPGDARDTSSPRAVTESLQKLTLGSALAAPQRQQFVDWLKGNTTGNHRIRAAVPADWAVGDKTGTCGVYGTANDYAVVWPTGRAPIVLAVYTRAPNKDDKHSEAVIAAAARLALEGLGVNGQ
Protocol: as §1

[9] = male, Sprague-Dawley, serum, Intravenous (5 mg/kg)
[10] = male, Sprague-Dawley, serum, Oral (10 mg/kg)

CC(C)(C)CCOc1c(-c2ccc(F)c(F)c2)oc2cc(OCC(=O)O)cc(O)c2c1=O [Compound 5, 2-((2-(3,4-Difluorophenyl)-3-(3,3-dimethylbutoxy)-5-hydroxy-4-oxo-4H-chromen-7-yl)oxy)acetic Acid]
Concentration up to which no noticeable toxic effect (hemolysis) [1]: ≥ 128000 ng/mL | Concentration at which cell viability was affected [2]: greater than 64 mg/L | Vd ([3]; male, Sprague-Dawley, serum, Intravenous (5 mg/kg), read-out: Vss): 0.65 ± 0.09 L/kg | Vd ([3]; male, Sprague-Dawley, serum, Intravenous (5 mg/kg), read-out: Vz): 1.84 ± 0.76 L/kg | Vd ([3]; male, Sprague-Dawley, serum, intravenous 5 mg/kg, read-out: Vss): 0.65 L/kg | AUC(0-inf) [3, 9]: 3610 ± 590 ng·h/mL | AUC(0-t) [3, 9]: 3600 ± 590 ng·h/mL | C0 [3, 9]: 11100 ± 2390 ng/mL | half-life [3, 9]: 0.92 ± 0.42 h | clearance ([3]; male, Sprague-Dawley, serum, Intravenous (5 mg/kg), read-out: Cl (systemic clearance)): 23.6 mL/min/kg | Cmax ([3]; male, Sprague-Dawley, serum, Intravenous (5 mg/kg), read-out: Cmax): 7510 ng/mL | MRT last [3, 9]: 0.45 ± 0.02 h | MRT inf [3, 9]: 0.46 ± 0.02 h | AUC(0-inf) [3, 10]: 1280 ± 540 ng·h/mL | AUC(0-t) [3, 10]: 1250 ± 570 ng·h/mL | Tmax [3, 10]: 2 h | half-life [3, 10]: 1.28 ± 0.53 h | Cmax ([3]; male, Sprague-Dawley, serum, Oral (10 mg/kg), read-out: Cmax): 290 ± 140 ng/mL | bioavailability ([3]; male, Sprague-Dawley, serum, Oral (10 mg/kg), read-out: F (bioavailability)): 17.3 ± 7.88% | MRT last [3, 10]: 2.87 ± 0.25 h | MRT inf [3, 10]: 3.13 ± 0.35 h | Cmax ([3]; Intravenous (5 mg/kg)): 7510 ± 1340 ng/mL | EPi (inhibition of efflux pump activity) [4]: ↑ ^g | IC50 [5]: > 100 µM | IC50 [6]: > 100 µM | IC50 [7]: > 50 µM | IC50 [8]: > 50 µM
